This assay has as its target human platelet-rich plasma (Homo sapiens, UniProt P05106+P08514). Put plainly: In vitro inhibition of ADP-induced aggregation of human platelet-rich plasma (Coller assay). The format is cell-based. Particulars: adjusted for fibrinogen concentration (ca. 30 times lower than Coller assay value; 0.1 mg/mL fibrinogen). The method, then:
1. In vitro Inhibition of Aggregation of Human Platelet-Rich Plasma
Whole blood (10 ml) was collected from human volunteers and anticoagulated by addition of […] of 40% sodium citrate. Platelet-rich plasma (PRP) was prepared by low speed centrifugation (700 G for 3.5 min at 22° C.). The PRP was removed and the remaining blood was centrifuged at 2000 G for 10 min at 22 ° C. to obtain platelet poor plasma (PPP). The PRP was diluted with PPP to give a final platelet count of 300 000μL with a Coulter Acounter Model ZM (Coulter, Hialeah, Fla.). This diluted PRP (400μL) was placed in a siliconized glass cuvette equipped with a magnetic stirrer and stirred at 1200 rpm at 37° C. Various concentrations of the peptides (36μL) in TRIS buffer (0.01 M TRIS, 0.15 M NaCl, and 0.05% sodium azide, pH 7.4) was added and incubated for 3 rain before platelet aggregation was induced by addition of 54μL of 100μM ADP in HEPES buffer (0.01 M HEPES and 0.15 M NaCl, pH 7.5). The platelet aggregation was determined by a change in light transmission through the PRP on a Lumi Aggregometer 400rS (ChronoLog, Hayertown, PA). The ability of the peptides to inhibit platelet aggregation was evaluated and the IC50 was determined as the concentration of peptide required to produce 50% inhibition of the response to ADP in the presence of the TRIS buffer.
The assay system developed by Coller, which is used throughout the experiment, is different from conventional assay systems in certain aspects. First, the platelets used by Plow et al., Blood, 70, 110 (1987); and Garsky et al., Proc. Natl. Acad. Sci. U.S.A., 86, 4022 (1989) are gel-filtered to remove plasma proteins. Since the gel-filtration treatment may decrease the reactivity of the platelets, our assay avoids this step. The platelet count is adjusted by simply mixing PRP and PPP, which minimizes alterations of the platelets. Second, fibrinogen concentration in the Coller system is different from that of others. As shown in the experimental description of the assay, PRP was obtained from fresh blood and used immediately without further manipulation except for count adjustment. According to measurements obtained using this assay, such plasma contains ca. 3 mg of fibrinogen per 1 mL of plasma. On the other hand, fibrinogen concentration used in the Garsky and Plow assay system is 0.1 mg/mL. The concentration of fibrinogen affects the amount of RGD peptide required to inhibit platelet aggregation, with higher fibrinogen concentrations resulting in higher IC50 values. If there is a linear relationship between these two parameters, the IC50 values obtained from the Coller assay should be ca. 30 times larger than those obtained from the Plow et al. assay or the Garsky et al. assay. The adjusted IC50 values are presented in column 4 of Table showing the inhibitory activities of RGD peptides.
The following peptides were synthesized, and their amino acid contents were analyzed as described in procedures 3-7, above. In addition, their ability to inhibit aggregation of human platelet rich plasma was assessed as described in procedures 1 and 2, above. Their respective IC50 values, as well as their estimated IC50 adjusted to the values according the method of Plow et al., (vide supra) are listed in Table 1.

Non-standard residues stand in square brackets, D forms with d. Residues, ends and D or L forms follow the SMILES beside them. 2Abz = Nc1ccccc1C(=O)O

human platelet-rich plasma, sequence (P08514 32-1039): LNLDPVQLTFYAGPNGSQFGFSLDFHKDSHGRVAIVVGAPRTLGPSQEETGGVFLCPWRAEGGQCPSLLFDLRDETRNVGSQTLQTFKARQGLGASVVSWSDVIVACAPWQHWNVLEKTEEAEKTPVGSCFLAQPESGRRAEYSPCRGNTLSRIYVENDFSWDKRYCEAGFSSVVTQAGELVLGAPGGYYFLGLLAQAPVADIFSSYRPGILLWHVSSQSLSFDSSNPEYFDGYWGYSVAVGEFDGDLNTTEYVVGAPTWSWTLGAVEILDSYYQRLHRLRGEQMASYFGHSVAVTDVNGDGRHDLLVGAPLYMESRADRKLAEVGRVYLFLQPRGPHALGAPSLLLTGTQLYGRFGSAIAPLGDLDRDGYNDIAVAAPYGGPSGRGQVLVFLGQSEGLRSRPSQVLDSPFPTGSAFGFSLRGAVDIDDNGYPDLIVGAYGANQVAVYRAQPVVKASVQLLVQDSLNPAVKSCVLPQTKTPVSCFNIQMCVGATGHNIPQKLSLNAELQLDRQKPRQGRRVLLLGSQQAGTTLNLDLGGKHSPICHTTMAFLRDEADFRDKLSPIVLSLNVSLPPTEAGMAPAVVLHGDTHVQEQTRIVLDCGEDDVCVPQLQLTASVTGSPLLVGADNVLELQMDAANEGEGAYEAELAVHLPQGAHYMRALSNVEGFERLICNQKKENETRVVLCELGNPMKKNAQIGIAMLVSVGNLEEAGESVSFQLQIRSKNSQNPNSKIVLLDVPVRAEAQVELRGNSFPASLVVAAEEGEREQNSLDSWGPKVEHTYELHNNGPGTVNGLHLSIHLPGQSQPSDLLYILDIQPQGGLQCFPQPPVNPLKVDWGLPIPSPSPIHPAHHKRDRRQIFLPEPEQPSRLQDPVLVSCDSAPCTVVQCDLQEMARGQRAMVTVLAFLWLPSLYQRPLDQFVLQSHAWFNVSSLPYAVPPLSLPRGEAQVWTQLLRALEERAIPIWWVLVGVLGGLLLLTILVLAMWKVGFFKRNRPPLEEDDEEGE
human platelet-rich plasma, sequence (P05106 27-788): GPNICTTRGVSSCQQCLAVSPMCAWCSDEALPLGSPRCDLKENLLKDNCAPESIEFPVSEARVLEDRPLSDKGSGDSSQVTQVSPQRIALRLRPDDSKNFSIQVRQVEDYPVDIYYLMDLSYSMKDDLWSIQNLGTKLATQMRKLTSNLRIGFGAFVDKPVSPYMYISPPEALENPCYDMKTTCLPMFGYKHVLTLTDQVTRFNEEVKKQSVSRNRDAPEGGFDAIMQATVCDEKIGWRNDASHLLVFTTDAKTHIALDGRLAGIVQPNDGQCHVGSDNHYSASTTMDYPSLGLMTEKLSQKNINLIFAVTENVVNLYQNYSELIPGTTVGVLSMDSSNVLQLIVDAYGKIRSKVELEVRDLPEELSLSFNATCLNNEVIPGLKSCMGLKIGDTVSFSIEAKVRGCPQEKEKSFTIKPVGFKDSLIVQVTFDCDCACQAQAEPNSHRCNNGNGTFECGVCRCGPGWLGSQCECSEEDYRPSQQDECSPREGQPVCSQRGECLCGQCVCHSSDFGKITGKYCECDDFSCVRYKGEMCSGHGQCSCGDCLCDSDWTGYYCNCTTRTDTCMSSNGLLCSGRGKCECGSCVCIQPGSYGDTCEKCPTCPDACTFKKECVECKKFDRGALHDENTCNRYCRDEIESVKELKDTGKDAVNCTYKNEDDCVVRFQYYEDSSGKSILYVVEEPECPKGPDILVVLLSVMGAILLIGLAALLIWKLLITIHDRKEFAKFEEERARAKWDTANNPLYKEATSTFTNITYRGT

`CC(C)[C@H](NC(=O)[C@H](CC(=O)O)NC(=O)CNC(=O)[C@H](CCCNC(=N)N)NC(=O)CN)C(=O)NCC(=O)Nc1ccccc1C(=O)NCC(=O)N[C@@H](CCCNC(=N)N)C(=O)NCC(=O)N[C@@H](CC(=O)O)C(=O)N[C@@H](Cc1ccccc1)C(N)=O` [Example 28, GRGDVG--(o)Abz--GRGDF--NH2] (H-GRGDVG[2Abz]GRGDF-NH2): the “IC50 (M)* Estimated IC50 adjusted to the values by the method of Plow et al.” value is 3.1e-06 M.
Then `N=C(N)NCCC[C@H](NC(=O)CN)C(=O)NCC(=O)N[C@@H](CC(=O)O)C(=O)N[C@@H](Cc1ccccc1)C(=O)NCCC[C@H](NC(=O)[C@H](Cc1ccccc1)NC(=O)[C@H](CC(=O)O)NC(=O)CNC(=O)[C@H](CCCNC(=N)N)NC(=O)CN)C(=O)NCC(=O)N[C@@H](CCCNC(=N)N)C(=O)NCC(=O)N[C@@H](CC(=O)O)C(=O)N[C@@H](Cc1ccccc1)C(N)=O` [Example 18, (GRGDF)2 Orn--GRGDF--NH2], with 2.1e-06 M.

Source of the values: patent publication US5338725A, “Anti-aggregatory agents for platelets” (The Research Foundation of the State University of New York, priority 1992, dated 1994).
